The test system of this test is MCF7 cells. Put plainly: Anti-proliferation (viability) of MCF7 cells (Table 7, FIG. 2B). The format is cell-based. Conditions: Homo sapiens, MCF7, MCF7 cells, 3-6 days, 10-point serial dilution; read-out: GI IC50 in MCF-7.

For the molecule `CC(=O)c1c(C)c2cnc(Nc3ccc(N4CCN(CC(=O)NC5CC6(C5)CC(Nc5nc(OC(C)C)ccc5C(=O)Nc5cn(C)c(C7CC7)n5)C6)CC4)cn3)nc2n(C2CCCC2)c1=O` (stereo not drawn) [CPD-292, 2-((6-(2-(4-(6-((6-acetyl-8-cyclopentyl-5-methyl-7-oxo-7,8-dihydropyrido[2,3-d]pyrimidin-2-yl)amino)pyridin-3-yl)piperazin-1-yl)acetamido)spiro[3.3]heptan-2-yl)amino)-N-(2-cyclopropyl-1-methyl-1H-imidazol-4-yl)-6-isopropoxynicotinamide], the IC50 is more than 100 nM.
Next, `[2H]C([2H])([2H])Nc1ccc(C(=O)Nc2cc(C)n(C)n2)c(NC2CC3(C2)CN(C(=O)CC(N2CCN(c4ccc(Nc5ncc6c(C)c(C(C)=O)c(=O)n(C7CCCC7)c6n5)nc4)CC2)C(F)(F)F)C3)n1` (stereo not drawn) [CPD-434, 2-((2-(3-(4-(6-((6-acetyl-8-cyclopentyl-5-methyl-7-oxo-7,8-dihydropyrido[2,3-d]pyrimidin-2-yl)amino)pyridin-3-yl)piperazin-1-yl)-4,4,4-trifluorobutanoyl)-2-azaspiro[3.3]heptan-6-yl)amino)-N-(1,5-dimethyl-1H-pyrazol-3-yl)-6-((methyl-d3)amino)nicotinamide]: less than 50 nM; `CC(=O)c1c(C)c2cnc(Nc3ccc(N4CCC(N5CCC(C(=O)NC6CC7(C6)CC(Nc6nc(NC(C)C)ccc6C(=O)Nc6ccc(N(C)C)nn6)C7)C5)CC4)cn3)nc2n(C2CCCC2)c1=O` (stereo not drawn) [CPD-397, 2-((6-(1-(1-(6-((6-acetyl-8-cyclopentyl-5-methyl-7-oxo-7,8-dihydropyrido[2,3-d]pyrimidin-2-yl)amino)pyridin-3-yl)piperidin-4-yl)pyrrolidine-3-carboxamido)spiro[3.3]heptan-2-yl)amino)-N-(6-(dimethylamino)pyridazin-3-yl)-6-(isopropylamino)nicotinamide]: less than 50 nM; `CNc1ccc(C(=O)Nc2cn(C)c(C(C)(C)O)n2)c(NC2CC3(CC(NC(=O)CN4CCN(c5ccc(Nc6ncc7c(C)c(C(C)=O)c(=O)n(C8CCCC8)c7n6)nc5)CC4)C3)C2)n1` (stereo not drawn) [CPD-340, 2-((6-(2-(4-(6-((6-acetyl-8-cyclopentyl-5-methyl-7-oxo-7,8-dihydropyrido[2,3-d]pyrimidin-2-yl)amino)pyridin-3-yl)piperazin-1-yl)acetamido)spiro[3.3]heptan-2-yl)amino)-N-(2-(2-hydroxypropan-2-yl)-1-methyl-1H-imidazol-4-yl)-6-(methylamino)nicotinamide]: more than 100 nM.
Consider `CNc1ccc(C(=O)Nc2ccc(N(C)C)nn2)c(NC2CC(C(=O)N3CCC4(CC3)CCN(c3ccc(Nc5ncc6c(C)c(C(C)=O)c(=O)n(C7CCCC7)c6n5)nc3)CC4)C2)n1` (stereo not drawn) [CPD-337, 2-((3-(9-(6-((6-acetyl-8-cyclopentyl-5-methyl-7-oxo-7,8-dihydropyrido[2,3-d]pyrimidin-2-yl)amino)pyridin-3-yl)-3,9-diazaspiro[5.5]undecane-3-carbonyl)cyclobutyl)amino)-N-(6-(dimethylamino)pyridazin-3-yl)-6-(methylamino)nicotinamide], for which the IC50 is more than 100 nM.
As to `CC(=O)c1c(C)c2cnc(Nc3ccc(N4CCC(NCC(=O)N5CCC(Nc6nc(NC(C)C)ccc6C(=O)Nc6ccc(N(C)C)nn6)CC5)CC4)cn3)nc2n(C2CCCC2)c1=O` [CPD-357, 2-((1-((1-(6-((6-acetyl-8-cyclopentyl-5-methyl-7-oxo-7,8-dihydropyrido[2,3-d]pyrimidin-2-yl)amino)pyridin-3-yl)piperidin-4-yl)glycyl)piperidin-4-yl)amino)-N-(6-(dimethylamino)pyridazin-3-yl)-6-(isopropylamino)nicotinamide], the IC50 was less than 50 nM.

A word on the IC50: it is the concentration that inhibits the measured activity by half.

The values are drawn from patent US20260297081A1, “COMPOUNDS AND METHODS OF TREATING CANCERS” (Cullgen Inc., priority 2023, published 2026).
